Source: patent US12540134B2, “Inhibitors of adrenoreceptor ADRAC2” (Bayer Aktiengesellschaft, priority 2019, dated 2026)

The compounds below were run against T1, human ADRA2C receptor (Homo sapiens (Human), UniProt P18825) (assay: In vitro radioligand binding study, competition assay with [3H] rauwolscine (Eurofins Panlabs)). Conditions: calculated from IC50 and Kd with the Cheng Prusoff equation; [3H] rauwolscine competition; read-out: hARα2C Ki.
Procedure: B-1 In Vitro Radioligand Binding Studies for Determination of the Dissociation Constants Ki at the Human Adrenoreceptor ADRA2C (Eurojins Panlabs Discovery Services, Taiwan, Ltd)
A competition assay based on [^3H] rauwolscine as radioliganden was used to determine the binding affinity of the test substances at the human ADRA2C receptor.
To configure the competition assay, the equilibrium dissociation constant Kd of the radioligand [^3H] rauwolscine was determined in a saturation experiment. To this end, homogenates of CHO-K1 cells recombinantly expressing the human ADRA2C receptor were incubated with increasing concentrations of the radiotracers for 1 h at 4° C. in binding buffer (50 mM Tris-HCl, 1 mM EDTA, pH 7.4). Unspecific binding was determined by addition of an excess of the not radioactively labelled ligand prazosin (10 μM). The radioactivity was determined in a scintiation counter.
The competition experiments were carried out in the presence of 0.5 nM [^3H] rauwolscine and increasing concentrations of the test substances to be characterized under the conditions described above.
From the IC50 value measured in the competition experiment and the Kd value from the saturation experiment, the equilibrium constant Ki of the inhibitor, which describes the affinity of the test substances to the receptor, was calculated using the Cheng Prusoff equation [Cheng Y, Prusoff W H. Relationship between the inhibition constant (Ki) and the concentration of inhibitor which causes 50 percent inhibition (ISO) of an enzymatic reaction. […] PMID 4202581 PMID: 4202581].

T1 sequence (P18825 whole entry): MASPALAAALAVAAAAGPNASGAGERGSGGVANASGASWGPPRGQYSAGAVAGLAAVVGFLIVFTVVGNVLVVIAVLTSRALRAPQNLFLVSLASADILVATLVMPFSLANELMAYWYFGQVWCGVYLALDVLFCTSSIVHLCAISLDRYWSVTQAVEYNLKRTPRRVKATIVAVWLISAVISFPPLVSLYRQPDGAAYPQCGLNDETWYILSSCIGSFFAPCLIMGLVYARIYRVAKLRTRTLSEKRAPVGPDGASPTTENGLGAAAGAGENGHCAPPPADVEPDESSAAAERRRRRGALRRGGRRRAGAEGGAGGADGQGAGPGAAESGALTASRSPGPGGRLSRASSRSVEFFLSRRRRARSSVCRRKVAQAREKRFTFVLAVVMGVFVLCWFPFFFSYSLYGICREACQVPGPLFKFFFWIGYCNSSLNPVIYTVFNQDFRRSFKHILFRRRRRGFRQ

In order of falling Ki:
1. O=C(NCc1ncc(F)cc1F)c1cnc(N2CCC(N3CCC[C@@H](CF)C3)CC2)s1 [Example 41, N-[(3,5-Difluoropyridin-2-yl)methyl]-2-[(3R)-3-(fluoromethyl)[1,4′-bipiperidin]-1′-yl]-1,3-thiazole-5-carboxamide]  56 nM
2. C[C@@H]1CCCN(C2CCN(c3ncc(C(=O)NCc4ncc(F)cc4F)s3)CC2)C1 [Example 1, N-[(3,5-Difluoropyridin-2-yl)methyl]-2-[(3R)-3-methyl[1,4′-bipiperidin]-1′-yl]-1,3-thiazole-5-carboxamide]  24 nM
3. O=C(NCc1ncc(F)cc1F)c1cnc(N2CCC(N3CCCC4(CC4)C3)CC2)s1 [Example 64, 2-[4-(5-Azaspiro[2.5]octan-5-yl)piperidin-1-yl]-N-[(3,5-difluoropyridin-2-yl)methyl]-1,3-thiazole-5-carboxamide]  2.8 nM
4. CCOC1CCCN(C2CCN(c3ncc(C(=O)NCc4ncc(F)cc4F)s3)CC2)C1 (single isomer, unassigned) [Example 124, ent-N-[(3,5-Difluoropyridin-2-yl)methyl]-2-(3-ethoxy[1,4′-bipiperidin]-1′-yl)-1,3-thiazole-5-carboxamide]  2.3 nM

Same assay, conditions: displacement of 0.5 nM [3H] rauwolscine; homogenates of CHO-K1 cells expressing human ADRA2C; 1 h, 4° C.; read-out: hARα2C IC50

In order of rising IC50:
1. CCOC1CCCN(C2CCN(c3ncc(C(=O)NCc4ncc(F)cc4F)s3)CC2)C1 (single isomer, unassigned) [Example 124, ent-N-[(3,5-Difluoropyridin-2-yl)methyl]-2-(3-ethoxy[1,4′-bipiperidin]-1′-yl)-1,3-thiazole-5-carboxamide]  5.1 nM
2. O=C(NCc1ncc(F)cc1F)c1cnc(N2CCC(N3CCCC4(CC4)C3)CC2)s1 [Example 64, 2-[4-(5-Azaspiro[2.5]octan-5-yl)piperidin-1-yl]-N-[(3,5-difluoropyridin-2-yl)methyl]-1,3-thiazole-5-carboxamide]  6.2 nM
3. C[C@@H]1CCCN(C2CCN(c3ncc(C(=O)NCc4ncc(F)cc4F)s3)CC2)C1 [Example 1, N-[(3,5-Difluoropyridin-2-yl)methyl]-2-[(3R)-3-methyl[1,4′-bipiperidin]-1′-yl]-1,3-thiazole-5-carboxamide]  54 nM
4. O=C(NCc1ncc(F)cc1F)c1cnc(N2CCC(N3CCC[C@@H](CF)C3)CC2)s1 [Example 41, N-[(3,5-Difluoropyridin-2-yl)methyl]-2-[(3R)-3-(fluoromethyl)[1,4′-bipiperidin]-1′-yl]-1,3-thiazole-5-carboxamide]  130 nM

The compounds below were run against T1, human ADRA2C receptor (assay: In vitro activity assay, inhibition of recombinant ADRA2C (CHO-K1 cells coexpressing Gαq and aequorin, noradrenaline-induced bioluminescence)). Conditions: inhibition of agonist (noradrenaline)-induced bioluminescence signal; some values are means of multiple determinations; read-out: ARα2C IC50.
Format: cell-based
Procedure: B-2. In Vitro Activity Assay to Determine the Inhibition of Recombinant ADRA2C
The human ADRA2C receptor belongs to the G protein (guanine-dependent protein)-coupled receptors, the main function of which is the transduction of signals into the interior of the cell.
The investigations of the inhibition of the recombinant human ADRA2C receptors were carried out with stably transfected CHO-K1 cells coexpressing the Gαq protein and the calcium-sensitive photoprotein aequorin. In this recombinant system, binding of the agonists noradrenaline to the ADRA2C receptor leads, after activation of a signal cascade, to calcium release from intracellular stores, which is detected by the intracellular calcium sensor aequorin as a bioluminescent signal. The method is described in detail in the reference below. [Wunder F., Kalthof B., Muller T., Hueser J. Functional Cell-Based Assays in Microliter Volumes for Ultra-High Throughput Screening. Combinatorial Chemistry & High Throughput Screening, Volume 11, Number 7, 2008, pp. 495-504(10). doi.org/10.2174/138620708785204054]
The activity of the test substances was determined via their ability to inhibit the agonist-induced increase of the bioluminescence signal. The concentration which can block half of this signal increase is referred to as IC50. The IC50 value is calculated using the 4 parameter logistic function (Hill function):
Top=upper threshold, Bottom=lower threshold, Slope=slope, IC50=turning point

In order of falling IC50:
1. C[C@@H]1CCCN(C2CCN(c3ncc(C(=O)N(C)Cc4cccnc4)s3)CC2)C1 [Example 90, N-methyl-2-[(3R)-3-methyl[1,4′-bipiperidin]-1′-yl]-N-(pyridin-3-ylmethyl)-1,3-thiazole-5-carboxamide]  971 nM
2. CCC1CN(c2ncc(C(=O)NCc3ncc(F)cc3F)s2)CCC1N1CCC[C@@H](C)C1 (single isomer, unassigned) [Example 162]  810 nM
3. Cc1ccc([C@@H](C)NC(=O)c2cnc(N3CCC(N4CCC[C@@H](C)C4)CC3)s2)cc1 (relative stereo) [Example 95, rel-2-[(3R)-3-methyl[1,4′-bipiperidin]-1′-yl]-N-[(1R)-1-(4-methylphenyl)ethyl]-1,3-thiazole-5-carboxamide]  800 nM
4. C[C@@H]1CCCN(C2CCN(c3nnc(C(=O)NCc4ncc(F)cc4F)s3)CC2)C1 [Example 152, N-[(3,5-difluoropyridin-2-yl)methyl]-5-[(3R)-3-methyl[1,4′-bipiperidin]-1′-yl]-1,3,4-thiadiazole-2-carboxamide]  660 nM
5. C[C@@H]1CCCN(C2CCN(c3ncc(C(=O)NCc4cccc(C(F)(F)F)n4)s3)CC2)C1 [Example 32]  640 nM
6. C[C@@H]1CCCN(C2CCN(c3ncc(C(=O)Nc4ccc(F)cc4Cl)s3)CC2)C1 [Example 88, N-(2-chloro-4-fluorophenyl)-2-[(3R)-3-methyl[1,4′-bipiperidin]-1′-yl]-1,3-thiazole-5-carboxamide]  489 nM
7. CCC1CN(c2ncc(C(=O)NCc3ncc(F)cc3F)s2)CCC1N1CCC[C@@H](C)C1 (single isomer, unassigned) [Example 163]  480 nM
8. C[C@@H]1CCCN(C2CCN(c3nc(C(=O)NCc4ncc(F)cc4F)co3)CC2F)C1 (single isomer, unassigned) [Example 160]  435 nM
9. CC1CN(c2ncc(C(=O)NCc3ncc(F)cc3F)s2)CCC1N1CCC[C@@H](C)C1 (single isomer, unassigned) [Example 165]  410 nM
10. O=C(NCc1ncc(F)cc1F)c1cnc(N2CCC(N3CCC[C@@H](C(F)(F)F)C3)CC2)s1 [Example 43, N-[(3,5-Difluoropyridin-2-yl)methyl]-2-[(3R)-3-(trifluoromethyl)[1,4′-bipiperidin]-1′-yl]-1,3-thiazole-5-carboxamide]  261 nM
11. CC1CC(N2CCC[C@@H](C)C2)CCN1c1ncc(C(=O)NCc2ncc(F)cc2F)s1 (single isomer, unassigned) [Example 161]  233 nM
12. C[C@@H]1CCCN(C2CCN(c3ncc(C(=O)NC[C@H](C)c4ccccc4)s3)CC2)C1 (relative stereo) [Example 83, rel-2-[(3R)-3-methyl[1,4′-bipiperidin]-1′-yl]-N-[(2R)-2-phenylpropyl]-1,3-thiazole-5-carboxamide]  98.1 nM
13. C[C@@H]1CCCN(C2CCN(c3nc(C(=O)NCc4ncc(F)cc4F)cs3)CC2F)C1 (single isomer, unassigned) [Example 158]  98 nM
14. O=C(NCc1ncc(F)cc1F)c1cnc(N2CCCC(N3CCCC4(C3)CC4(F)F)CC2)s1 (stereo not drawn) [Example 156, diamix-2-[4-(1,1-Difluoro-5-azaspiro[2.5]octan-5-yl)azepan-1-yl]-N-[(3,5-difluoropyridin-2-yl)-methyl]-1,3-thiazole-5-carboxamide]  36 nM
15. CC(C)(C)C1CCCN(C2CCN(c3ncc(C(=O)NCc4ncc(F)cc4F)s3)CC2)C1 (racemic) [Example 149, 2-(3-tert-butyl[1,4′-bipiperidin]-1′-yl)-N-[(3,5-difluoropyridin-2-yl)methyl]-1,3-thiazole-5-carboxamide]  35 nM
16. C[C@@H]1CCCN(C2CCN(c3nc(C(=O)NCc4ncc(F)cc4F)co3)CC2F)C1 (single isomer, unassigned) [Example 159]  25 nM
17. CC(NC(=O)c1cnc(N2CCC(N3CCC[C@@H](C)C3)CC2)s1)c1cc(F)ccc1F (stereo partly drawn) [Example 47, N-[1-(2,5-Difluorophenyl)ethyl]-2-[(3R)-3-methyl[1,4′-bipiperidin]-1′-yl]-1,3-thiazole carboxamide]  25 nM
18. CC1CN(c2ncc(C(=O)NCc3ncc(F)cc3F)s2)CCC1N1CCC[C@@H](C)C1 (single isomer, unassigned) [Example 164]  24 nM
19. O=C(NCc1ncc(F)cc1F)c1cnc(N2CCCC(N3CCCC4(CC4)C3)CC2)s1 (racemic) [Example 153, rac-2-[4-(5-Azaspiro[2.5]octan-5-yl)azepan-1-yl]-N-[(3,5-difluoropyridin-2-yl)methyl]-1,3-thiazole-5-carboxamide]  23 nM
20. O=C(NCc1ncc(F)cc1F)c1cnc(N2CCC(N3CCCC(C4CC4)C3)CC2)s1 (racemic) [Example 137, 2-(3-cyclopropyl[1,4′-bipiperidin]-1′-yl)-N-[(3,5-difluoropyridin-2-yl)methyl]-1,3-thiazole-5-carboxamide]  19 nM
21. CC(NC(=O)c1cnc(N2CCC(N3CCC[C@@H](C)C3)CC2)s1)c1cc(F)ccc1F (single isomer, unassigned) [Example 46]  8.3 nM
22. O=C(NCc1ncc(F)cc1F)c1cnc(N2CCC(N3CCCC(C4CCC4)C3)CC2)s1 (racemic) [Example 138, 2-(3-cyclobutyl[1,4′-bipiperidin]-1′-yl)-N-[(3,5-difluoropyridin-2-yl)methyl]-1,3-thiazole-5-carboxamide]  6.5 nM
23. C[C@@H]1CCCN(C2CCN(c3nc(C(=O)NCc4ncc(F)cc4F)cs3)CC2F)C1 (single isomer, unassigned) [Example 157]  2.7 nM
24. COCCC1CCCN(C2CCN(c3ncc(C(=O)NCc4ncc(F)cc4F)s3)CC2)C1 (racemic) [Example 148, N-[(3,5-difluoropyridin-2-yl)methyl]-2-[3-(2-methoxyethyl)[1,4′-bipiperidin]-1′-yl]-1,3-thiazole-5-carboxamide]  1.3 nM
25. C[C@@H]1CCCN(C2CCN(c3ncc(C(=O)NCc4cc(Cl)ccc4F)s3)CC2F)C1 (mixture of isomers) [Example 113, diamix-N-(5-Chloro-2-fluorobenzyl)-2-[(3R)-3′-fluoro-3-methyl[1,4′-bipiperidin]-1′-yl]-1,3-thiazole-5-carboxamide]  0.61 nM
